From patent US7323541B2, “Polypeptide DNA thereof and use of the same” (Takeda Pharmaceutical Company Limited, priority 2001, dated 2008)
Residue numbers refer to the chain shown, from its start. Where no end group is shown, it is not given here.

Columns and labels:
[1] = system: human colon cancer cell line LS 174T; assay: Growth of carcinomas of LS 174T in nude mice; assay type: in vivo, nude mice (BALB/cAnN-nu); conditions: osmotic pump 48 nmol/day for 14 days, 11th to 20th day, vs distilled water
Experimental: Effects on the growth of carcinomas by the human TGR23-2 ligand (1-20) in nude mice of human colon cancer cell line LS 174T were investigated.
The LS 174T dissolved in PBS (phosphate buffered saline) was subcutaneously administered at the ratio of 4×10^6 cells/200 μl/mouse to left abdominal of female nude mice (BALB/cAnN-nu, six weeks old). After three hours of administration, 100 μl of the human TGR23-2 ligand (1-20) dissolved in Otsuka distilled water at the concentration of 2 mM, or Otsuka distilled water was filled in the Micro-Osmotic Pump (alza, model 1002), and further embedded under the skin in the back of mouse under anesthesia (n=10 per each group). From this day, the human TGR23-2 ligand (1-20) was continuously released for 14 days at 48 nmol/day. From the third day of administration, dimensions of the carcinoma were measured, and carcinoma volume was calculated based on the formula: (major axis)×(minor axis)^2/2.

[2] = molecular target: T1, human TGR23-1B expressing CHO cells (Homo sapiens, UniProt Q6W5P4, N107I/S241R); assay: Intracellular Ca ion concentration increasing activity using FLIPR; assay type: cell-based
T1 construct: expressed in transfected cells; host or cells: CHO dhfr- cells, pAKKO-TGR23-1B, clone No. 59
T1 sequence (Q6W5P4 1-371 N107I/S241R): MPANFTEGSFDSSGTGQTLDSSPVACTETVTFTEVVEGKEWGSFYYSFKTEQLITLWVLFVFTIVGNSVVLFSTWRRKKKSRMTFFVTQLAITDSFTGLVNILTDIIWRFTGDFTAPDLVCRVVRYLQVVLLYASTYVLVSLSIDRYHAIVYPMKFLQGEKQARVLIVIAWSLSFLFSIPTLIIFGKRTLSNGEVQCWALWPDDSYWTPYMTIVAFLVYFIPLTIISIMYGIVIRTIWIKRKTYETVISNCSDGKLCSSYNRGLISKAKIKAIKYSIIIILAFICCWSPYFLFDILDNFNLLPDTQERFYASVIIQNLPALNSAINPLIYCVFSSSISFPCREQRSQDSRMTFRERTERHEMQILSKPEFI
Experimental: (§1) An enhancing activity of intracellular Ca^2+ release was assayed using FLIPR (Molecular Devices, Inc.). The CHO/TGR23-2 cells prepared in Example 1 and selected in Example 2 were plated on 96-well plate at 3×10^4 cells/well and cultured for 24 hours. A loading buffer was prepared by adding 1 vial of Fluo 3-AM to 10 ml of Hanks' solution (pH7.4) containing 2.5 mM Probenecid and 20 mM HEPES (hereafter, Hanks' solution (pH7.4) containing 2.5 mM Probenecid and 20 mM HEPES may be referred to as a washing buffer). The culture medium was discarded from the culture plate and 100 μl/well of the loading buffer were added to the cells. Then, the cells were incubated for 60 minutes in the incubator. After the loading buffer was removed from the culture plate and the cells were washed with the washing buffer, the plate was put in place of FLIPR. A sample was prepared by adding a sample buffer, which 2 mg/ml BSA and 1 mg/ml CHAPS were added to the washing buffer, to lyophilized product, stirring and treating by ultrasonication for 30 minutes, and transferred to 96-well sample plate. This sample plate was also put in place for assay. The enhancing activity of intracellular Ca^2+ release was measured as an increase of fluorescent intensity, which is raised by addition of the sample.
(§2) The human TGR23-2 ligand (1-20) having various concentrations was administered in accordance with the method described in Example 5, to the CHO cells, in which human TGR23-1A, human TGR23-1B, human TGR23-1C and human TGR23-1D are expressed. Subsequently, the intracellular Ca ion concentration increasing activity was measured using FLIPR.

[3] = molecular target: T2, human TGR23-1D expressing CHO cells (Homo sapiens, UniProt Q6W5P4, Q344R); assay: as above; assay type: cell-based
T2 construct: expressed in transfected cells; host or cells: CHO dhfr- cells, pAKKO-TGR23-1D, clone No. 12
T2 sequence (Q6W5P4 1-371 Q344R): T1 sequence (Q6W5P4 1-371 N107I/S241R) with I107N, R241S, Q344R
Experimental: as §1, §2

[4] = molecular target: T3, human TGR23-1C expressing CHO cells (Homo sapiens, UniProt Q6W5P4, N107I); assay: as above; assay type: cell-based
T3 construct: expressed in transfected cells; host or cells: CHO dhfr- cells, pAKKO-TGR23-1C, clone No. 9
T3 sequence (Q6W5P4 1-371 N107I): T1 sequence (Q6W5P4 1-371 N107I/S241R) with R241S
Experimental: as §1, §2

SFRNGVGTGMKKTSFQRAKS [human TGR23-2 ligand (1-20)]
carcinoma volume of LS 174T [1]: has a tendency to increase
intracellular Ca ion concentration increasing activity [2]: the intracellular Ca ion level increased depending on the concentration of this ligand
intracellular Ca ion concentration increasing activity [3]: the intracellular Ca ion level increased depending on the concentration of this ligand
intracellular Ca ion concentration increasing activity [4]: the intracellular Ca ion level increased depending on the concentration of this ligand
